Test results taken from patent US8252748B2, “Peptide derived from neurotensin receptor 3 and use thereof in the treatment of psychiatric diseases” (Centre National de la Recherche Scientifique—CNRS, priority 2007, dated 2012).
No end group written: not given here.

Assays:
[1] = test system: mouse (C57Black/J); assay: Tail suspension test (TST); format: in vivo; conditions: IV 100 μl at 1 μM per animal; 30 min after injection
Text: (§1) The inventors conducted three types of behavioral experiments that are regarded as classical for determining the antidepressant activity of a substance (Nestler E. J., Gould E., Manji H., Buncan M., Duman R. S., Greshenfeld H. K., Hen, R. et al. “Preclinical models: status of basic research in depression” Biol Psychiatry. 15, 503-528 (2002) (20) and Cryan, J. & Holmes, A. “The ascent of mouse: advances in modeling human depression and anxiety” Nat Rev Drug Discov. 4, 775-790 (2005) (21)). The effects of the propeptide of the present invention were compared with those of the saline solution in which it is dissolved and with those of fluoxetine, one of the most-used antidepressants in clinical practice. The mouse strain used is C57Black/J strain. TREK-1^−/− mice were also measured in these various tests.
(§2) In the next two tests, the propeptide of the present invention was administered by the IV route at a rate of 100 μl at 1 μM per animal.
B. Tail Suspension Test (TST)
(see Cryan, J. & Holmes, A. (2005) (21) and Ripoll, N., David, D., Dailly, E., Hascoet, M. & Bourin, M. “Antidepressant-like effects in various mice strains in the tail suspension” Behav Brain Res. 143(2:193-200 (2003) (22).)
The experiment, 30 min after injection of the test substance in the mouse, consists of suspending the mouse by the tail by means of an adhesive ribbon and measuring the immobility time for 6 min.

[2] = test system: mouse (C57Black/J); assay: Conditioned motility suppression test (CMST); format: in vivo; conditions: propeptide IV 100 μl at 1 μM per animal; 30 min after injection
Text: as §1, §2
C. Conditioned Motility Suppression Test (CMST) (see Daugé, V., Sebret, A., Beslot, F., Matsui, T., & Rogues B. “Behavioral profile of CCK2 receptor-deficient mice” Neuropsychopharmacol; 25: 690-698 (2001) (23).
The experiment consists of conditioning the mouse on day 1, and measuring the effects of the substances on day 2.
On day 1, each mouse is placed in a box where the floor is a metal grille connected to an electric stimulator. […]

[3] = test system: C57BL6/J mice; assay: Hot plate test of sensitivity to pain; format: in vivo, mouse; conditions: IV 100 μl at 10^−6 M, 30 minutes after injection
Method: Sensitivity to pain was measured with two tests: the hot plate test and the “tail flick” test.
This test consists of measuring the time that a mouse licks its hind paws when it is put on a plate maintained at a given temperature. Two temperatures were used: 50 and 56° C.
The mice used were C57BL6/J mice. Each group was constituted of 10 mice.
The sensitivity to heat was then measured on the three groups of mice and the results obtained were compared.
The measurements were taken 30 minutes after injection.
The statistical difference was measured using the one-factor ANOVA test followed by the post-hoc test.

[4] = test system: C57BL6/J mice; assay: Kainate-induced epileptic seizures; format: in vivo, mouse; conditions: IP 100 μl at 10^−5 M; kainate 30 mg/kg IP; 90 minutes after kainate; 10 mice per group (5 in saline group)
Method: In this experiment, the mice used were C57BL6/J, […], which received an intraperitoneal injection of 100 μl of physiological saline solution and a “PE 10^−5 M” group, in which the mice received an intraperitoneal injection of 100 μl of a solution containing the peptide of the invention at a concentration of 10^−5M. In each of the experimental groups, epileptic seizures were induced by intraperitoneal injection of 100 μl of kainate at a rate of 30 mg/kg. Observation of the stage of epileptic seizure was carried out 90 minutes after injection of kainate. This was based on observation of the behavior of the mice.
The different stages of epileptic seizure are presented in the document of Tsirka S. E., Gualandris, A., Amaral, D. G., Strickland, S. “Excitotoxin-induced neuronal degeneration and seizure are mediated by tissue plasminogen activator”, Nature, 377: 340-344 (1995) (26).
6 stages are defined for describing the intensity of an epileptic attack: • Stage 1: immobility • Stage 2: movements of the head and of the nape • Stage 3: unilateral clonic activity • Stage 4: bilateral clonic activity • Stage 5: generalized convulsions • Stage 6: death of the animal
Statistical analysis was performed by a two-factor ANOVA test followed by the post-hoc test.

[5] = test system: C57BL6/J mice; assay: Focal ischemia (middle cerebral artery occlusion), infarct size; format: in vivo, mouse; conditions: daily IP 100 μl at 10^−5 M for a week, vs physiological saline
Method: The model used for inducing a CVA is that of focal ischemia, which consists of occlusion of the middle cerebral artery with a thread (Heurteaux C., Laigle, C., Blondeau, N., Jarretou, G., Lazdunski, M. “Alpha-linolenic acid and riluzole treatment confer cerebral protection and improve survival after focal brain ischemia” Neuroscience, 137: 241-251 (2006) (27). The size of the infarcts caused by this focal ischemia was measured after staining brain sections with cresyl violet. The infarct is measured by tracing the contour of the infarct zone by an image analysis system (Olympus DP Soft) according to the method described in Heurteaux et al., 2006 (27). The brains of C57BL6/J mice (at the rate of 10 mice per experimental group) are treated for a week with a daily intraperitoneal injection of 100 μl of a solution containing either the peptide of sequence ID No. 2 at a concentration of 10^−5M (“PE 10^−5M” group), or with a solution of physiological saline solution (“PHYS SALINE” group). The values were compared between the two groups.
(§3) The difference was evaluated using the Student t test.

[6] = test system: C57BL6/J mice; assay: Intake of food and drinking water after long-term treatment; format: in vivo, mouse; conditions: daily IP 100 μl at 10^−5 M for 15 days; 6 and 72 hours after end of treatment
Method: The intake of food and of drinking water was also measured. Two experimental groups of C57BL6/J mice (n=10 per group) were used: the first group received an intraperitoneal injection daily for 15 days of 100 μl of physiological saline solution (“PHYS SALINE”), the second group received an intraperitoneal injection daily for 15 days of 100 μl of a solution containing the peptide of sequence ID No. 2 at a concentration of 10^−5M (“PE 10^−5 M”).
These measurements were taken 6 and 72 hours after the end of long-term treatment.
as §3

## APLPRWSGPIGVSWGLR [propeptide, APLPRWSGPIGVSWGLR]
[1]
  effect on immobility time: comparable to those produced by fluoxetine
[2]
  motility relative to untreated shocked mice: 7 times greater
[3]; 50° C.
  reaction time on hot plate: 21.1 ± 1.5 s
[3]; 56° C.
  reaction time on hot plate: 4.6 ± 0.9 s
[4]
  number of animals that reached stage 5 (generalized convulsions): 2 animals
[5]
  size of the infarct caused by focal ischemia: does not have a significant effect
[6]
  food intake: does not have a significant effect
  intake of drinking water: no significant difference
